Reference: US10723770B2, “Crystal structure of the large ribosomal subunit from S. aureus” (Yeda Research and Development Co. Ltd., priority 2015, dated 2020)
≈ marks a conversion by molar mass, not a printed value.

Legend:
SA ribosomes = assay: S. aureus cell free in vitro transcription-translation assay (luciferase reporter); assay type: biochemical, Staphylococcus aureus; details: for IC50, inhibition of protein synthesis: luciferase luminescence, S. aureus system
Experimental: The SA ribosomes activity was tested and its level was determined in a bacterial coupled transcription/translation assay system which measures the expression of the luciferase gene, according to Murray, R. W. et al. [Antimicrobial agents and chemotherapy, 2001, 45(6), p. 1900-1904]. Briefly, the luciferase gene was inserted into plasmid with T7 RNA polymerase promoter. The 30 μl reaction's volume contained 160 mM Hepes-KOH buffer (pH 7.5), 6.5% PEG 8K, 0.074 mg/ml tyrosine, 1.3 mM ATP, 0.86 mM CTP, GTP and UTP, 208 mM potassium glutamate, 83 mM creatine phosphate, 28 mM NH4OAc, 0.663 mM cAMP, 1.8 mM DTT, 0.036 mg/ml folinic acid, 0.174 mg/ml E. coli tRNA mix, 1 mM amino acid, 0.25 mg/ml creatine kinase, 0.027 mg/ml T7 RNA polymerase, ribosome free E. coli cell free extract, 300 nM of SA ribosomes and 0.003 μg/μl luciferase plasmid.
The reaction mixture was incubated at 37° C. for 1 hour, and erythromycin was added at a final concentration of 8 μM in order to terminate the reaction. 50 μl of Luciferin Assay Reagent (LAR, Promega) was added to the mixture and luminescence was measured in order to quantify the reaction's products.
FIGS. 20A-B present the results of in vitro transcription-translation cell-free inhibition assays of bacterial protein synthesis, wherein the inhibitory effect on protein expression in S. aureus system of BC-3205 is presented in FIG. 20A and of lefamulin is presented in FIG. 20B. The activity of the reporter protein (luciferase) in the presence of various concentrations of BC-3205 and lefamulin is shown as arbitrary unit of luminescence [a.u.].

Staphylococcus aureus = details: cited from earlier work

SMILES | IC50, inhibition of protein synthesis (SA ribosomes) | MIC against SA (Staphylococcus aureus) | potency against SA relative to linezolid (Staphylococcus aureus; more potent than linezolid) | IC50 against S. aureus ribosome compared to E. coli ones (SA ribosomes; in words only, data not shown)
C=C[C@]1(C)C[C@@H](OC(=O)CS[C@H]2CCCN(C(=O)[C@H](N)C(C)C)C2)[C@]2(C)[C@H](C)CC[C@]3(CCC(=O)[C@H]32)[C@@H](C)[C@@H]1O [BC-3205] | 0.42 µg/mL | 0.06 µg/mL (≈ 0.104 µM) | 16-32 fold | 
C=C[C@]1(C)C[C@@H](OC(=O)CS[C@@H]2CC[C@@H](N)C[C@H]2O)[C@]2(C)[C@H](C)CC[C@]3(CCC(=O)[C@H]32)[C@@H](C)[C@@H]1O [lefamulin] | 0.09 µg/mL |  |  | 
CCC[C@@H]1C[C@@H](C(=O)N[C@@H]([C@H]2O[C@H](SC)[C@H](O)[C@@H](O)[C@H]2O)[C@@H](C)O)N(C)C1 [lincomycin] |  |  |  | super low IC50
